Reference: ChEMBL document CHEMBL3351695, “Synthesis of novel 10-hydroxycamptothecin derivatives utilizing topotecan hydrochloride as ortho-quinonemethide precursor” (Bioorg Med Chem, 2015)
Counter-ions that a name gives are not always drawn. Activity calls are given as the source filed them. No cut-off for these calls is given here.

Legend:
HepG2 = test: Antiproliferative activity against human HepG2 cells after 48 hrs by CCK8 assay; type: functional, cell-based; conditions: HepG2, 48 h
KB = test: Antiproliferative activity against human KB cells after 48 hrs by CCK8 assay; type: functional, cell-based
[1] = Antiproliferative activity against human HCT8 cells after 48 hrs by CCK8 assay; type: functional, cell-based; conditions: HCT-8, 48 h
[2] = Antiproliferative activity against human SGC7901 cells after 48 hrs by CCK8 assay; type: functional, cell-based; conditions: SGC-7901, 48 h
SGC-7901 = test: Ratio of 10-hydroxycamptothecin IC50 to compound IC50 for human SGC7901 cells after 48 hrs by CCK8 assay; type: functional
[3] = target: T1, DNA topoisomerase 1 (Homo sapiens) (UniProt P11387); test: Inhibition of purified Topo 1 (unknown origin)-mediated supercoiled pBR322 DNA cleavage at 12.5 uM after 15 mins by agarose gel electrophoresis
T1 sequence (whole entry): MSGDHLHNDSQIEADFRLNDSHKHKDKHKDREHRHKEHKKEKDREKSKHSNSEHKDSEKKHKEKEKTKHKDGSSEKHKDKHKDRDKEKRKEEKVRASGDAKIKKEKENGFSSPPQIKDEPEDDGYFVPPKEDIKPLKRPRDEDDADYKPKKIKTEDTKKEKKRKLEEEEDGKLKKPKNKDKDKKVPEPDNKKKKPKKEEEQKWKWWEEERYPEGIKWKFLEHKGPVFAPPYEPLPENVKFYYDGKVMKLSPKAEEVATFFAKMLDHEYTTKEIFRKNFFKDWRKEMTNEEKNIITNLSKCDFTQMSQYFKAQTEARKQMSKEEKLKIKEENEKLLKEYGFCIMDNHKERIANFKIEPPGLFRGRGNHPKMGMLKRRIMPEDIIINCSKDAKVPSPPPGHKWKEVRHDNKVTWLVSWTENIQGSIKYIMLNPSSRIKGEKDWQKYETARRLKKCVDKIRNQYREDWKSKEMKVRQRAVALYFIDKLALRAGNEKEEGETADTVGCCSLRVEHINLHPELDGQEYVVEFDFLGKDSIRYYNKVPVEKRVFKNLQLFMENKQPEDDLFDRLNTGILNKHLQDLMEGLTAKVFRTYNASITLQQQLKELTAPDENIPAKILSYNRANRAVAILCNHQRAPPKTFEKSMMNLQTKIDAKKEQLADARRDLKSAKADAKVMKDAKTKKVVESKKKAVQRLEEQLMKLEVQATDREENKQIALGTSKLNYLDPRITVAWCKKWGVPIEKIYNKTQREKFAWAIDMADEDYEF

| Structure (SMILES) | IC50 (HepG2) [nM] | IC50 (KB) [nM] | IC50 [1] [nM] | IC50 [2] [nM] | Ratio IC50 (SGC-7901) | inhibition [3] |
| --- | --- | --- | --- | --- | --- | --- |
| CC[C@@]1(O)C(=O)OCc2c1cc1n(c2=O)Cc2cc3c(CSCC(=O)OC)c(O)ccc3nc2-1 | 3200 | 12900 | 3090 | 9020 |  |  |
| CCCSCc1c(O)ccc2nc3c(cc12)Cn1c-3cc2c(c1=O)COC(=O)[C@]2(O)CC | 734 | 2170 | 746 | 2820 |  |  |
| CCSCc1c(O)ccc2nc3c(cc12)Cn1c-3cc2c(c1=O)COC(=O)[C@]2(O)CC | 595 | 2190 | 282 | 549 |  |  |
| CC[C@@]1(O)C(=O)OCc2c1cc1n(c2=O)Cc2cc3c(CSC)c(O)ccc3nc2-1 | 70400 | 19300 | 1220 | 2170 |  |  |
| CC[C@@]1(O)C(=O)OCc2c1cc1n(c2=O)Cc2cc3c4c(ccc3nc2-1)O[C@@H]1OCCC[C@H]1C4 | 266 | 1230 | 204 | 255 | 4 |  |
| CCN(CC)CCSCc1c(O)ccc2nc3c(cc12)Cn1c-3cc2c(c1=O)COC(=O)[C@]2(O)CC | 5090 | 32500 | 21900 | 10400 |  |  |
| CC[C@@]1(O)C(=O)OCc2c1cc1n(c2=O)Cc2cc3c4c(ccc3nc2-1)O[C@@H]1OCC[C@H]1C4 | 332 | 1710 | 203 | 182 | 4 | inactive |
| CC[C@@]1(O)C(=O)OCc2c1cc1n(c2=O)Cc2cc3c(CN(C)C)c(O)ccc3nc2-1 [TOPOTECAN HYDROCHLORIDE] | 4210 | 2280 | 1880 | 2290 |  |  |
| CCOC1CCc2c(ccc3nc4c(cc23)Cn2c-4cc3c(c2=O)COC(=O)[C@]3(O)CC)O1 (some centres not stated) | 265 | 1480 | 401 | 413 |  |  |
| CC[C@@]1(O)C(=O)OCc2c1cc1n(c2=O)Cc2cc3c4c(ccc3nc2-1)OC(O)CC4 (some centres not stated) | 184 | 777 | 567 | 536 |  | Active |
| CC[C@@]1(O)C(=O)OCc2c1cc1n(c2=O)Cc2cc3c(CSC(C)(C)C)c(O)ccc3nc2-1 | 762 | 1410 | 1430 | 3140 |  |  |
| CC[C@@]1(O)C(=O)OCc2c1cc1n(c2=O)Cc2cc3c(CSCCC(=O)O)c(O)ccc3nc2-1 | 89000 | > 100000 | 30300 | 40800 |  | inactive |
| CC[C@@]1(O)C(=O)OCc2c1cc1n(c2=O)Cc2cc3c(CSC(C)C)c(O)ccc3nc2-1 | 351 | 994 | 406 | 993 |  | Active |
| CCCCOC1CCc2c(ccc3nc4c(cc23)Cn2c-4cc3c(c2=O)COC(=O)[C@]3(O)CC)O1 (some centres not stated) | 145 | 950 | 317 | 772 |  | inactive |
| CC[C@@]1(O)C(=O)OCc2c1cc1n(c2=O)Cc2cc3c4c(ccc3nc2-1)OC(OCC(C)C)CC4 (some centres not stated) | 387 | 1140 | 471 | 344 |  |  |
| CC[C@@]1(O)C(=O)OCc2c1cc1n(c2=O)Cc2cc3cc(O)ccc3nc2-1 [HYDROXYCAMPTOTHECIN] | 499 | 128 | 181 | 835 |  | Active |
